SMILES strings stand for the structures. pIC50: −log10 of the molar value. Where a name gives a salt, the structure may show the parent alone.

CK2A1 (CK2α/β), sequence (P68400 whole entry, species assumed): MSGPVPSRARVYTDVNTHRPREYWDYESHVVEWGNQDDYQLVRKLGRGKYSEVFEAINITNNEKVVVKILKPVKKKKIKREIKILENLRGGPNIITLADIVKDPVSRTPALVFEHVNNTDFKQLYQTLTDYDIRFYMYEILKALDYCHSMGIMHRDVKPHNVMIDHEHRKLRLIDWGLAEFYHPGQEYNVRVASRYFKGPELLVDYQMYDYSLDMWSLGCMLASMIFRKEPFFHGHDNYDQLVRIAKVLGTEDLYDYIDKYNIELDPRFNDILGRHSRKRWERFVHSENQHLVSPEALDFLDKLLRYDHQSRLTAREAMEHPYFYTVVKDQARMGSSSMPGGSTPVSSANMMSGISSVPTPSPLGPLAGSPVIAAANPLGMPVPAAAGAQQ
CK2A1 (CK2α/β), sequence (P67870 whole entry partner, species assumed): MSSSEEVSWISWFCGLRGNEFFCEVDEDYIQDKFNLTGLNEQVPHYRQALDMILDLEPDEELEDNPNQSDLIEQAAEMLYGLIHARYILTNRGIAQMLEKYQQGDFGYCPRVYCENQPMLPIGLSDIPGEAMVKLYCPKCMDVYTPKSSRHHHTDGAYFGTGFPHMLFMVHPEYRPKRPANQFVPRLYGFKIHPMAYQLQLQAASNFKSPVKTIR

The assay addresses CK2A1 (CK2α/β) (Homo sapiens, UniProt P68400). Nature of the assay: CK2 kinase assay, CK2A1 (CK2α/β). In kind it is biochemical. Particulars: Table A; read-out: CK2A1 (CK2α/β) (IC50).
Turning to `N#Cc1cc(Nc2nc(NC3CC3)c3ncc(C#N)n3n2)c(Cl)c(C2(O)COC2)c1` [Example 653, 2-((2-chloro-5-cyano-3-(3-hydroxyoxetan-3-yl)phenyl)amino)-4-(cyclopropylamino)imidazo[2,1-f][1,2,4]triazine-7-carbonitrile], the pIC50 is 8.74.

Turning to `CCNc1nc(Nc2cc(C#N)cc(N3CCC(N(C)C4COC4)CC3)c2Cl)nn2c(C#N)cnc12` [Example 365, 2-((2-chloro-5-cyano-3-(4-(methyl(oxetan-3-yl)amino)piperidin-1-yl)phenyl)amino)-4-(ethylamino)imidazo[2,1-f][1,2,4]triazine-7-carbonitrile], the pIC50 is 8.48.

For `CCNc1nc(Nc2cc(C#N)cc(N3CCN([C@H]4C[C@H](O)C4)CC3)c2Cl)nn2c(C#N)cnc12` [Example 613, 2-[(2-chloro-5-cyano-3-{4-[(1r,3r)-3-hydroxycyclobutyl]piperazin-1-yl}phenyl)amino]-4-(ethylamino)imidazo [2,1-f][1,2,4]triazine-7-carbonitrile], the pIC50 is 8.79.

For the molecule `COC1CN(CC(=O)N2CCN(c3cc(C#N)cc(Nc4nc(NC5CC5)c5ncc(C#N)n5n4)c3Cl)CC2)C1` [Example 585, 2-[(2-chloro-5-cyano-3-{4-[2-(3-methoxyazetidin-1-yl)acetyl]piperazin-1-yl}phenyl)amino]-4-(cyclopropylamino)imidazo [2,1-f][1,2,4]triazine-7-carbonitrile], the pIC50 is 8.48.

As for `CCNc1nc(Nc2cc(C#N)cc(N3CC[C@H]4NCCO[C@@H]4C3)c2Cl)nn2c(C#N)cnc12` (racemic) [Example 371, (+/−)-2-((2-chloro-5-cyano-3-((4aR,8aR)-hexahydro-1H-pyrido[3,4-b][1,4]oxazin-6(7H)-yl)phenyl)amino)-4-(ethylamino)imidazo[2,1-f][1,2,4]triazine-7-carbonitrile], the pIC50 is 8.44.

For the molecule `CN(CCN)c1cc(Cl)c(Nc2nc(NC3CC3)c3ncc(C#N)n3n2)cc1C#N` [Example 412, 2-((4-((2-aminoethyl)(methyl)amino)-2-chloro-5-cyanophenyl)amino)-4-(cyclopropylamino)imidazo[2,1-f][1,2,4]triazine-7-carbonitrile], the pIC50 is 9.37.

In the case of `CCNc1nc(Nc2ccc3c(c2)c(C#N)cn3C2CCN(C3COCC3O)CC2)nn2c(C#N)cnc12` (racemic) [Example 825, (+/−)-2-((3-cyano-1-(1-(4-hydroxytetrahydrofuran-3-yl)piperidin-4-yl)-1H-indol-5-yl)amino)-4-(ethylamino)imidazo[2,1-f][1,2,4]triazine-7-carbonitrile], the pIC50 is 9.52.

As to `N#Cc1cc(Nc2nc(NC3CC3)c3ncc(C#N)n3n2)c(Cl)c(N2CCN(C3CN(C(=O)CC(N)=O)C3)CC2)c1` [Example 519, 3-{3-[4-(2-chloro-5-cyano-3-{[7-cyano-4-(cyclopropylamino)imidazo[2,1-f][1,2,4]triazin-2-yl]amino}phenyl)piperazin-1-yl]azetidin-1-yl}-3-oxopropanamide], the pIC50 was 8.49.

Regarding `CCNc1nc(Nc2cc(C#N)cc(C3CCN(C(C)=O)CC3)c2Cl)nn2c(C#N)cnc12` [Example 354, 2-((3-(1-acetyl-4-piperidinyl)-2-chloro-5-cyanophenyl)amino)-4-(ethylamino)imidazo[2,1-f] [1,2,4]triazine-7-carbonitrile], the pIC50 was 9.28.

Take `N#Cc1cc(Nc2nc(NC3CC3)c3ncc(C#N)n3n2)c(Cl)c(N2CC[C@H]3NC(=O)CO[C@@H]3C2)c1` (racemic) [Example 310, (+/−)-2-((2-chloro-5-cyano-3-((4aR,8aR)-2-oxohexahydro-1H-pyrido[3,4-b][1,4]oxazin-6(7H)-yl)phenyl)amino)-4-(cyclopropylamino)imidazo[2,1-f][1,2,4]triazine-7-carbonitrile, 2HCl]: the pIC50 is 8.54.

`N#Cc1cc(Nc2nc(NC3CC3)c3ncc(C#N)n3n2)c(Cl)c(N2CCN(C(=O)C(F)F)CC2)c1` [Example 75, 2-(2-chloro-5-cyano-3-(4-(2,2-difluoroacetyl)piperazin-1-yl)phenylamino)-4-(cyclopropylamino) imidazo[1,2-f][1,2,4] triazine-7-carbonitrile]: the pIC50 was 9.39.

On to `CC(C)(C(N)=O)N1CCC(c2cc(C#N)cc(Nc3nc(NC4CC4)c4ncc(C#N)n4n3)c2Cl)CC1` [Example 641, 2-(4-(2-chloro-5-cyano-3-((7-cyano-4-(cyclopropylamino)imidazo[2,1-f][1,2,4]triazin-2-yl)amino)phenyl)piperidin-1-yl)-2-methylpropanamide], for which the pIC50 is 8.40.

`N#Cc1cc(Nc2nc(NC3CC3)c3ncc(C#N)n3n2)c(Cl)c(C(O)C2CN(C3COC3)C2)c1` (stereo not shown) [Example 656, 2-((2-chloro-5-cyano-3-(hydroxy(1-(oxetan-3-yl)azetidin-3-yl)methyl)phenyl)amino)-4-(cyclopropylamino)imidazo[2,1-f][1,2,4]triazine-7-carbonitrile]: the pIC50 is 8.17.

As for `CCNc1nc(Nc2cc(C#N)cc(N3CC[C@@H](NC(=O)OC)[C@H](OC(=O)[C@@H](N)CCN)C3)c2Cl)nn2c(C#N)cnc12` [Example 812, (S)-(3R,4R)-1-(2-chloro-5-cyano-3-((7-cyano-4-(ethylamino)imidazo[2,1-f][1,2,4]triazin-2-yl)amino)phenyl)-4-((methoxycarbonyl)amino)piperidin-3-yl 2,4-diaminobutanoate dihydrochloride], the pIC50 is 8.34.

Regarding `C=CC1(N2CCC(c3cc(C#N)cc(Nc4nc(NC5CC5)c5ncc(C#N)n5n4)c3Cl)CC2)COC1` [Example 379, 2-((2-chloro-5-cyano-3-(1-(3-vinyloxetan-3-yl)piperidin-4-yl)phenyl)amino)-4-(cyclopropylamino)imidazo[2,1-f][1,2,4]triazine-7-carbonitrile], the pIC50 is 8.58.

As to `CN1CCC2(CC1)CN(c1cc(C#N)cc(Nc3nc(NC4CC4)c4ncc(C#N)n4n3)c1Cl)C2` [Example 22, 2-((2-chloro-5-cyano-3-(7-methyl-2,7-diazaspiro[3.5]non-2-yl)phenyl)amino)-4-(cyclopropylamino)imidazo [2,1-f][1,2,4]triazine-7-carbonitrile], the pIC50 was 9.17.

As to `CN1CCN(C2CN(c3cc(C#N)cc(Nc4nc(NC5CC5)c5ncc(C#N)n5n4)c3Cl)C2)CC1` [Example 151, 2-((2-chloro-5-cyano-3-(3-(4-methylpiperazin-1-yl)azetidin-1-yl)phenyl)amino)-4-(cyclopropylamino)imidazo[2,1-f][1,2,4]triazine-7-carbonitrile], the pIC50 is 9.23.

On to `N#Cc1cc(Nc2nc(NC3CC3)c3ncc(C#N)n3n2)c(F)c(N2CCN([C@@H]3CS(=O)(=O)C[C@H]3O)CC2)c1` (racemic) [Example 553, rac-2-((5-cyano-2-fluoro-3-(4-((3R,4R)-4-hydroxy-1,1-dioxidotetrahydrothiophen-3-yl)piperazin-1-yl)phenyl)amino)-4-(cyclopropylamino)imidazo[2,1-f][1,2,4]triazine-7-carbonitrile], for which the pIC50 is 8.26.

Regarding `CO[C@@H](C)C(=O)N1CC(N2CCN(c3cc(C#N)cc(Nc4nc(NC5CC5)c5ncc(C#N)n5n4)c3Cl)CC2)C1` [Example 521, 2-{[2-chloro-5-cyano-3-(4-{1-[(2S)-2-methoxypropanoyl]azetidin-3-yl}piperazin-1-yl)phenyl]amino}-4-(cyclopropylamino)imidazo[2,1-f][1,2,4]triazine-7-carbonitrile], the pIC50 is 8.47.

These data come from patent publication US9273057B2 (Bristol-Myers Squibb Company, priority 2012, dated 2016).
